Measured values from patent US6204289A, “Cembranoid inhibitors of nicotinic acetylcholine receptors” (priority 1998, dated 2001).

Tested on: peripheral and neuronal AchRs
Test: Inhibition of peripheral and neuronal AchRs (summary statement)
Description: Cembranoids are cyclic diterpenoids naturally present in many plants and invertebrate animals. We discovered that cembranoids inhibit both peripheral and neuronal AchRs at concentrations ranging from 10^-15 molar to 10^-4 molar; cembranoids also increase the rate of receptor desensitization. Seventeen different cembranoid analogs were tested. There are two main differences between previously known AchR inhibitors and these new cembranoid inhibitors. […] Second, cembranoids are present in tobacco leaves, and therefore potentially have an effect on nicotine action in the brains of cigarette smokers. Nicotine-induced desensitization of neuronal acetylcholine receptors is related to behavioral tolerance or addiction to nicotine (6); since cembranoids increase receptor desensitization, they are likely to increase tobacco addictive properties. Thus, by extracting the cembranoids from tobacco, this could produce less addictive cigarettes (or any tobacco related product). On the other hand, addition of cembranoids to tobacco could possibly increase its addictive properties. In addition, cembranoids displace general anesthetics from the muscle-type AchR, and so they could ameliorate the undesirable side-effects of anesthesia in patients with Myasthenia gravis.
We discovered that cembranoids isolated from gorgonian-corals inhibit both peripheral and neuronal AchRs.

Molecule	potency relative to any previously known AchR inhibitors (factor)
C=C(C(=O)O)C1CC/C(C)=C/CC/C(C)=C/CCC2(C)OC2C1 (centres unmarked) [pseudoplexauric acid]	at least 1000
eupalmerin acetate	at least 1000
